Reference: publication PMC10975012, “The Active Glucuronide Metabolite of the Brain Protectant IMM-H004 with Poor Blood–Brain Barrier Permeability Demonstrates a High Partition in the Rat Brain via Multiple Mechanisms” (Pharmaceutics, 2024)

What was measured:
[1] = system: pyrilamine-sensitive H^+/OC antiporter; experiment: Identification of transporters using inhibitors in hCMEC/D3 cells: H+/OC antiporter; format: cell-based, human; settings: substrate 10 μmol/L; for reduction of uptake by quinidine: quinidine 100 μmol/L; for reduction of uptake by verapamil: verapamil 100 μmol/L
Method: (§1) The toxicity of all compounds, including inhibitors and substrates, toward hCMEC/D3 cells, was assessed using the 3-(4,5-Dimethylthiazol-2-yl)-2,5-diphenyltetrazolium bromide (MTT) reduction assay as described previously. To assess the effects of pyrilamine-sensitive proton-coupled organic cation (H^+/OC) antiporter, organic anion transporter (OAT), organic anion-transporting polypeptides (OATPs), organic cation transporter (OCT), and novel organic cation–carnitine transporter (OCTN) inhibitors on the uptake process, IMM-H004 or IMM-H004G (10 µmol/L) combined with the inhibitors were added to the medium after preincubating the cells with the inhibitors for 30 min. For evaluating the impact of the multidrug and toxin extrusion transporter (MATE), P-glycoprotein (P-gp), multidrug resistance protein (MRP), and breast cancer resistance protein (BCRP) on the uptake, IMM-H004 or IMM-H004G (10 µmol/L) was preincubated with the cells for 2 h before the addition of the inhibitors. After removing the supernatant, the cells were washed twice with prewarmed HBSS and incubated with fresh HBSS for 20 min. At the end of incubation, the supernatants were collected. The cells were washed with cold HBSS and lysed using RIPA buffer. The protein content of the lysed cells was determined using a bicinchoninic acid (BCA) assay kit (Beyotime Inc., Shanghai, China). The results were expressed as a percentage of the vehicle control.

[2] = Plasma protein binding, rapid equilibrium dialysis; format: in vitro ADME; settings: rat, 0.5–10 μg/mL, RED, 37 °C, read-out: unbound fraction (fu) in rat plasma
Method: The rat plasma protein binding of IMM-H004 and IMM-H004G (0.5–10 μg/mL) was investigated using a rapid equilibrium dialysis (RED) assay. The RED plate inserts utilized in this assay contained a dialysis membrane with a molecular weight cut-off of 8 kDa (Thermo Fisher Scientific, Waltham, MA, USA). For the assay, aliquots of plasma (0.2 mL) and phosphate-buffered saline (0.35 mL) were added to the sample chamber and buffer chamber, respectively. The plate was then sealed and incubated at 37 °C, 200 rpm for 4 h. Following the dialysis period, the concentrations of IMM-H004 and IMM-H004G were determined using LC-MS/MS. The ratio of the drug concentration in the buffer to that in the plasma chamber was used to calculate the unbound fraction (fu) of the drugs.

[3] = Uptake kinetics in hCMEC/D3 cells; format: cell-based, human; settings: human, hCMEC/D3 cells, 2–400 μmol/L, 10 min
Method: (§2) Uptake assays into hCMEC/D3 cells were conducted in 24-well plates. All incubations were carried out at 37 °C in triplicate unless otherwise noted. In time-dependent uptake studies, hCMEC/D3 cells were incubated with IMM-H004 (10 µmol/L) and IMM-H004G (50 µmol/L) dissolved in HBSS under gentle shaking for up to 30 min. To investigate the impact of incubation temperature on the uptake of IMM-H004 and IMM-H004G by hCMEC/D3 cells, incubation was performed at 4 or 37 °C for 10 min. To determine the kinetic parameters, the cells were incubated with IMM-H004 and IMM-H004G (2–400 µmol/L) for 10 min. The uptake data were fitted to the following equation using nonlinear least-square regression analysis in GraphPad Prism 9 (GraphPad, San Diego, CA, USA):(1) V=Vmax×S/Km+S+Kns×S where V is the uptake velocity (nmol/mg protein/min), and S is the initial concentration (μmol/L). Vmax, Km, and Kns represent the maximum uptake velocity (nmol/mg protein/min), the Michaelis–Menten constant (μmol/L), and nonsaturable uptake clearance (μL/mg protein/min), respectively. The saturable uptake of both IMM-H004 and IMM-H004G was plotted with the Eadie–Hofstee method by subtracting passive uptake from the total uptake.

hCMEC/D3 cells = experiment: Uptake kinetics in hCMEC/D3 cells; format: cell-based, human; settings: for reduction of uptake at 4 °C compared to 37 °C: 10 μmol/L; for reduction of uptake at 4 °C compared to 37 °C / Kns, passive diffusion rate / Vmax/Km ratio, transporter-mediated uptake: 10 min; for Kns, passive diffusion rate / Vmax/Km ratio, transporter-mediated uptake: 2–400 μmol/L
Method: as §2

P-gp = target: T1, P-gp (Homo sapiens, UniProt P08183); experiment: Identification of transporters using inhibitors in hCMEC/D3 cells: P-gp; format: cell-based; settings: substrate 10 μmol/L, PSC833 5 μmol/L
T1 construct: host or cells: hCMEC/D3
T1 sequence (P08183 whole entry): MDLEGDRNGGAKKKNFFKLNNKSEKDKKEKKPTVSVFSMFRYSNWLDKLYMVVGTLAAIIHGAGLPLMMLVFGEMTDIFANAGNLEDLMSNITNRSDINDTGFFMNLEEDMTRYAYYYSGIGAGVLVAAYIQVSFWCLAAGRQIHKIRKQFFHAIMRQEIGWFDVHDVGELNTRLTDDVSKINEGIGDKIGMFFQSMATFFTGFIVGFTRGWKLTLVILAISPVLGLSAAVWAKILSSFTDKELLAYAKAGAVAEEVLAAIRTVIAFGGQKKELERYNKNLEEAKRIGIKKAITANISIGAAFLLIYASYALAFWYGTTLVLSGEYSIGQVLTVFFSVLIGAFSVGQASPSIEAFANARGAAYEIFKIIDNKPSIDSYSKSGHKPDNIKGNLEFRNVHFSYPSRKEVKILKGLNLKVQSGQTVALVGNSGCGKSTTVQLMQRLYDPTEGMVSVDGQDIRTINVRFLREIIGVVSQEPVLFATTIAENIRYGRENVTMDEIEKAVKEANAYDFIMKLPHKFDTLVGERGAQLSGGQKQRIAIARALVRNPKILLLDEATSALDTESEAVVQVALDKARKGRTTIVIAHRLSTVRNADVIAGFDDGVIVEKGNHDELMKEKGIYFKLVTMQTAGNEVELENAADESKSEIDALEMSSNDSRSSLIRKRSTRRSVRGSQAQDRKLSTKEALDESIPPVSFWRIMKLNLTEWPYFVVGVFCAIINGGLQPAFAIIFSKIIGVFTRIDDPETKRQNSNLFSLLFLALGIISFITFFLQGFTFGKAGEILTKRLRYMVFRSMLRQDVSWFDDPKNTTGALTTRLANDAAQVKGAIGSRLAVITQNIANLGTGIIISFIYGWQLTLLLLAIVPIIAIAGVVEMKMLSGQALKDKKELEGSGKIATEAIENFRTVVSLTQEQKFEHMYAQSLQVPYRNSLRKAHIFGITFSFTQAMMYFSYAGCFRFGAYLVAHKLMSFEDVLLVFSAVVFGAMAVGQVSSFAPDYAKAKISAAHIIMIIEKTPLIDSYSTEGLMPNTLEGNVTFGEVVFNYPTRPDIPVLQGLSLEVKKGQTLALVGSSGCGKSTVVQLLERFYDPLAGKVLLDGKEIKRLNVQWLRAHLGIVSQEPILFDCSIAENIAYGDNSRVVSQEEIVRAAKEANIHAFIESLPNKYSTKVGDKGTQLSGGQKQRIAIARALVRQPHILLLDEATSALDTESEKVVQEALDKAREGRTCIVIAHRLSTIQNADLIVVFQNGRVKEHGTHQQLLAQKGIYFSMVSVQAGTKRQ
Method: as §1, with “The cells were washed with cold HBSS and lysed using RIPA buffer.” left out

OATP1B1 = target: T2, OATP1B1 (Homo sapiens, UniProt Q9Y6L6); experiment: Uptake in MDCKⅡ-OATP1B1 cells; format: cell-based; settings: MDCKⅡ-OATP1B1, 30, 60 µmol/L, 20 or 40 min
T2 construct: expressed in transfected cells; host or cells: MDCKII
T2 sequence (Q9Y6L6 1-691): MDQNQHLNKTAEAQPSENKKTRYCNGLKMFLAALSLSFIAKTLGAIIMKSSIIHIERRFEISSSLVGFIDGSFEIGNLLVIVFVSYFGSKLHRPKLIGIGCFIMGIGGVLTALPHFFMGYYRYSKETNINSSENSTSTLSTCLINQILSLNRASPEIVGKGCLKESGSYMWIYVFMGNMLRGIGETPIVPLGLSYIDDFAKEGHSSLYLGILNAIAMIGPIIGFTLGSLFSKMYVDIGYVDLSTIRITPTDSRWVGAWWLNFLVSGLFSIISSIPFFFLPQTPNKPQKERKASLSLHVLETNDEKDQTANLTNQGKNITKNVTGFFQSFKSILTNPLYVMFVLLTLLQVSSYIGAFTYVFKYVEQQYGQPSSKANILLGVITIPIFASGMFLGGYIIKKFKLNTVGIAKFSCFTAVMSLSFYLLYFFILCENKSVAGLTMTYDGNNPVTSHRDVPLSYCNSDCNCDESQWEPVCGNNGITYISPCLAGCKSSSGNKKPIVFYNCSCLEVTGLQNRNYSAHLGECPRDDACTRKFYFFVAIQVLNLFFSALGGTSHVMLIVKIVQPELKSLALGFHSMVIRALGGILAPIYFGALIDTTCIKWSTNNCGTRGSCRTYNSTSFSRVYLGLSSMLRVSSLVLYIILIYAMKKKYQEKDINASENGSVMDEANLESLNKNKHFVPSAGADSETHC
Method: Figure S4 Uptake of IMM-H004G in MDCKⅡ-OATP1B1 and MDCKⅡ-OATP1B3 cells. (a)
RSV (rosuvastatin, 30 µmol/L) is used as a positive group in MDCKⅡ-OATP1B1 cells. (b)
E17βG (estradiol-17β-glucuronide, 5 µmol/L) is used as a positive group in
MDCKⅡ-OATP1B3 cells. (c) IMM-H004G (30, 60 µmol/L) was incubated with
MDCKⅡ-OATP1B1 and MDCKⅡ-OATP1B3 cells for 20 or 40 min. The OATP
pan-inhibitor CsA (cyclosporin A) is 10 µmol/L. n=3 for positive substrates, and n=2 for
IMM-H004G. ***p < 0.001, **p < 0.01, *p < 0.05 vs. control group. ns, not significant.
(1 picture or pasted object on this page, not shown here)

Structure (SMILES) | reduction of uptake by quinidine [1] | reduction of uptake by verapamil [1] | fraction unbound at 4 h [2] | Km at 10 min [3] [µM] | reduction of uptake at 4 °C compared to 37 °C (hCMEC/D3 cells) [%] | Kns, passive diffusion rate (hCMEC/D3 cells) [μL/min/mg protein] | Vmax/Km ratio, transporter-mediated uptake (hCMEC/D3 cells) [μL/min/mg protein] | uptake with P-gp inhibitor PSC833 relative to control (P-gp) | uptake increase in OATP1B1-overexpressing cells compared to control cells (OATP1B1) | Kns relative to that of IMM-H004G (hCMEC/D3 cells) [times]
COc1cc(OC2OC(C(=O)O)C(O)C(O)C2O)cc2oc(=O)c(N3CCN(C)CC3)c(C)c12 (stereo not drawn) [IMM-H004G] | not affected | not affected | 0.315 ± 0.008 | 10.7 | 70.6 | 0.100 | 1.50 | without affecting | did not exceed a tenfold increase | –
COc1cc(O)cc2oc(=O)c(N3CCN(C)CC3)c(C)c12 [IMM-H004] | 57.7% | 61.5% | 0.025 ± 0.002 | 89.5 | 57.1 | 0.877 | 18.8 | 1.3 times that of the control | – | 8.77
